Test in all cases: NCI-60 cell line screen, 48 h
In assay [1] the test system is SW-620 colon.
The test system of assay [2] is NCI-H23 lung.
Assay [3] relates to OVCAR-8 ovarian.
The test system of assay [4] is COLO 205 colon.
Assay [5] relates to KM12 colon.
Assay [6] deals with OVCAR-5 ovarian.
Assay [7] has as its system CCRF-CEM leukemia.
In assay [8] the test system is DU-145 prostate.
The subject of assay [9] is IGROV1 ovarian.
Assay [10] deals with UO-31 renal.

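Each compound was tested at five concentrations against cells in 96-well plates for 48 hours. GI50 marks 50% less growth. The concentration for full growth arrest is given as TGI.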

In the case of `CCN(CC)CCOc1ccc(/C=C2\CC3C4CC=C5C[C@@H](N6CCCC6)CC[C@]5(C)C4CC[C@]3(C)[C@H]2O)cc1OC` (stereo not given in full), the GI50 in assay [1] was 0.624 µM; in assay [2] it was 8.87 µM; in [3] it was 5.16 µM; in assay [4] it was 5.4 µM; in [5], 2.67 µM; in [6], 24 µM. For the same compound, the GI50 was 1.14 µM in assay [7], 4.62 µM in assay [8], 8.91 µM in assay [9] and 4.29 µM in [10]. In addition, the TGI in assay [1] was 7.38 µM; in [2], 25.1 µM; in assay [3] it was > 40.8 µM; in [4] it was 23 µM; in [5] it was 11.9 µM; in [6] it was > 72.8 µM. Moreover, the TGI was 4.77 µM in [7], 34.7 µM in assay [8], > 27.6 µM in assay [9] and 16.9 µM in [10].
Turning to `C[C@]12CCC(=O)C(O)=C1CC[C@@H]1[C@@H]2CC[C@]2(C)C(=O)CC[C@@H]12`, the TGI in [1], in assay [2], in [3], in assay [4], in [5] and in assay [6] was > 100 µM throughout. The TGI in assay [7], in assay [8], in assay [9] and in [10] was > 100 µM throughout.
As for `CN(C)CCCNC(=O)c1cc(NC(=O)c2cc(NC(=O)c3cc(NC(=O)CCc4c[nH]c5ccccc45)cn3C)cn2C)cn1C`, the GI50 in assay [1], in assay [2], in assay [3], in [4], in assay [5] and in [6] was > 100 µM throughout. For the same compound, the GI50 in assay [7], in assay [8], in assay [9] and in assay [10] was > 100 µM throughout. The TGI in [1], in [2], in [3], in assay [4], in assay [5] and in assay [6] was > 100 µM throughout. Besides, the TGI in [7], in assay [8], in assay [9] and in assay [10] was > 100 µM in each case.
In the case of `CC(=O)N1c2ccccc2Sc2cc(C(O)(C(F)(F)F)C(F)(F)F)ccc21`, the TGI in assay [1], in [2], in assay [3], in assay [4], in assay [5] and in [6] was > 10 µM throughout. Also, the TGI in assay [7], in assay [8], in assay [9] and in assay [10] was > 10 µM each time.
With `C[C@]12CC[C@@H]3c4ccc(O)cc4CC[C@H]3[C@@H]1CC[C@@H]2NS(=O)(=O)Cc1ccc(Cl)cc1`, the GI50 in [1] was 3.5 µM; in assay [2], 2.76 µM; in assay [3], 2.52 µM; in [4], 1.81 µM; in assay [5] it was 2.05 µM; in assay [6] it was 3.76 µM. For the same compound, the GI50 is 2.63 µM in assay [7], 3.99 µM in [8], 2.99 µM in [9] and 1.39 µM in assay [10]. The TGI in assay [1] was determined as 17.3 µM; in [2] it was 10.8 µM; in assay [3], 7.58 µM; in [4] it was 3.27 µM; in assay [5], 4.39 µM; in [6] it was 14.2 µM. In addition, the TGI in [7] is > 100 µM; in assay [8] it was 16.8 µM; in assay [9], 10.4 µM; in [10], 5.13 µM.
With `Cc1ccc2c(N)c(C(=O)N[C@H]3CCc4cc(N5CC6CCC(C5)N6)ccc4C3)sc2n1`, the GI50 in assay [1] is 0.293 µM; in assay [2], 1.24 µM; in assay [3] it was 0.385 µM; in [4] it was 0.383 µM; in assay [5], 0.693 µM; in assay [6] it was 0.47 µM. Moreover, the GI50 in [7] was 0.228 µM; in assay [8], 0.165 µM; in assay [9], 0.348 µM; in assay [10], 0.577 µM. Besides, the TGI in assay [1] is 2.13 µM; in assay [2] it was 5.31 µM; in assay [3], 2.83 µM; in assay [4] it was 1.49 µM; in assay [5] it was 3.33 µM; in assay [6], 3 µM. In addition, the TGI in assay [7] is > 33 µM; in assay [8], 1.48 µM; in assay [9] it was 2.72 µM; in assay [10], 3.24 µM.
On to `Cc1[nH]c(/C=C2\C(=O)Nc3ccc(F)cc32)c(C)c1C(=O)NC[C@H](O)CN1CCOCC1`, for which the GI50 in assay [1] is 2.3 µM; in assay [2], 2.41 µM; in [3], 5.41 µM; in [4], 3.41 µM; in assay [5], 0.0691 µM; in assay [6], 2.85 µM. The GI50 in [7] is 0.0624 µM; in assay [8] it was 3.65 µM; in assay [9], 2.73 µM; in [10], 1.47 µM. For the same compound, the TGI in assay [1], in assay [2], in [3], in assay [4], in assay [5] and in assay [6] was > 10 µM throughout. For the same compound, the TGI in assay [7], in assay [8], in assay [9] and in [10] was > 10 µM in each case.
Consider `Nc1ccccc1C#C/C=C\C#Cc1ccc(Cl)cc1Cl`, for which the GI50 in [1] is 34.8 µM; in [2], 14.2 µM; in [3], 19.1 µM; in assay [4], 23.8 µM; in assay [5], 2.72 µM; in [6] it was 13.8 µM. For the same compound, the GI50 was 0.376 µM in assay [7], 13.5 µM in assay [8], 14.8 µM in assay [9] and 14.2 µM in assay [10]. Also, the TGI was > 100 µM in assay [1]; 31.5 µM in [2]; 41.5 µM in assay [3]; > 100 µM in [4]; 14.4 µM in [5]; 28.7 µM in assay [6]. Further, the TGI in assay [7] worked out at 10.6 µM; in assay [8], 37.8 µM; in assay [9], 38.7 µM; in [10] it was 40 µM.
Consider `S=C(N/N=C/c1ccccn1)Nc1ccccn1`, for which the GI50 in assay [1] is 1.7 µM; in assay [2] it was 3.23 µM; in assay [3] it was 0.671 µM; in assay [4], 0.471 µM; in assay [5], 2.87 µM; in assay [6], 3.86 µM. The GI50 was 0.358 µM in assay [7], 2.58 µM in assay [8], 3.17 µM in [9] and 1.01 µM in assay [10]. Besides, the TGI in assay [1], in assay [2], in assay [3], in assay [4], in assay [5] and in assay [6] was > 100 µM each time. Besides, the TGI in [7] is 17.5 µM; in assay [8], > 100 µM; in assay [9] it was > 100 µM; in [10], > 100 µM.
Take `O=[N+]([O-])/C=C/c1c[nH]c2ccccc12`: the GI50 in [1] is 15.2 µM; in [2] it was 15 µM; in assay [3] it was 21.6 µM; in assay [4], 15.6 µM; in assay [5], 14.6 µM; in assay [6] it was 17.8 µM. The GI50 in assay [7] was 15.8 µM; in assay [8] it was 15.5 µM; in [9], 13.3 µM; in [10], 13.4 µM. The TGI in [1] amounted to 57.5 µM; in assay [2], 31 µM; in [3] it was 49.4 µM; in assay [4] it was 30.6 µM; in assay [5], 31 µM; in [6] it was 35.2 µM. For the same compound, the TGI in assay [7] is > 100 µM; in assay [8], 32.5 µM; in assay [9] it was 27.6 µM; in assay [10] it was 27.2 µM.

Source of the values: PubChem BioAssay (NCI).
